Patent publication US20070010489A1 (priority 2002, published 2007)
Like-named read-outs stand apart in the source and are kept apart here.

Legend:
[1] = target: T1, recombinant HIV-1 protease (Human immunodeficiency virus type 1 group M subtype B, UniProt P04585); assay: biochemical; details: for Ki: read-out: Ki
T1 construct: Enzyme: recombinant HIV-1 protease expressed in E. Coli; purchased Bachem California, Inc. H-9040; host or cells: E. coli

84V90M [2] = target: T2, 84V90M (Human immunodeficiency virus type 1 group M subtype B, UniProt P04585, I572V/L578M); assay: cell-based; parameters: species or system HIV; details: Cell-based assay (MT-4)
84V90M [3] = target: T2, 84V90M; type: biochemical, HIV; details: Enzymatic assay
[4] = system: wild-type HIV-1 strain IIIB; assay: microbe, parasite or virus in culture; type: cell-based
[5] = system: mutant HIV-1 with I84V/L90M mutations; assay: microbe, parasite or virus in culture; type: cell-based
HIV = assay: microbe, parasite or virus in culture; type: cell-based; details: Human immunodeficiency virus 1
I84V/L90M = system: I84V/L90M; parameters: key to the marks not given beside the values
[6] = Human immunodeficiency virus 1, IIIB
[7] = fold difference in EC50 mutant vs wild type, class symbols

Row | SMILES | EC50 (84V90M [2]) [nM] | IC50 (84V90M [3]) [nM] | EC50 [4, 6] [nM] | I84V/L90M fold change ([5]; fold change) | further results
1 | Nc1n[nH]c2ccc(CN3C(=O)N(Cc4cccc(OCP(=O)(OCc5ccccc5)OCc5ccccc5)c4)C(Cc4ccccc4)C(O)C(O)C3Cc3ccccc3)cc12 (centres unmarked) | > 6000 | 43 |  |  | Ki [1]: 0.177 nM; IC50 ([1]; read-out: WT IC50): 18 nM
2 | CCCCN1C(=O)N(Cc2ccc3[nH]nc(N)c3c2)C(Cc2ccccc2)C(O)C(O)C1Cc1ccccc1 (centres unmarked) [DMP-851] | 918 | 9.4 |  |  | 
3 | CCOP(=O)(COc1ccc(S(=O)(=O)N(CC(C)C)CC(O)C(Cc2ccccc2)NC(=O)OC2COC3OCCC23)cc1)OCC (centres unmarked) |  |  | < 50 | ++ (>10 to ≦30) | 
4 | CCOP(=O)(COc1ccc(CC2C(O)C(O)C(Cc3ccc(O)cc3)N(Cc3ccc(O)cc3)C(=O)N2Cc2ccc(O)cc2)cc1)OCC (centres unmarked) [OH, Ph-pOH, OCH2PO3Et2] | 1910 | 18 |  |  | 
5 | COc1ccc(S(=O)(=O)N(CC(C)C)C[C@@H](O)[C@H](Cc2ccc(OCP(=O)(Oc3ccccc3)Oc3ccccc3)cc2)NC(=O)OC2CCOC2)cc1 (some centres unmarked) [OMe, phenol] |  |  |  | + (>3 to ≦10) | EC50 ([4]; read-out: EC50): < 50 nM; Ki [1]: < 0.01 nM
6 | COc1ccc(S(=O)(=O)N(CC(C)C)C[C@@H](O)[C@H](Cc2ccc(OCP(=O)(OCc3ccccc3)OCc3ccccc3)cc2)NC(=O)OC2CCOC2)cc1 (some centres unmarked) [OMe, OBn] |  |  |  | ++ (>10 to ≦30) | EC50 ([4]; read-out: EC50): < 50 nM
7 | CCOP(=O)(COCCCN1C(=O)N(Cc2ccc3[nH]nc(N)c3c2)C(Cc2ccccc2)C(O)C(O)C1Cc1ccccc1)OCC (centres unmarked) [OCH2PO3Et2] | > 6000 | 157 |  |  | 
8 | COc1ccc(S(=O)(=O)N(CC(C)C)C[C@@H](O)[C@H](Cc2ccc(OCP(=O)(O)O)cc2)NC(=O)OC2CCOC2)cc1 (some centres unmarked) [OMe, OH] |  |  |  | +++ (>30) | 
9 | CCOP(=O)(OCC)c1ccc(CNCC(NC(=O)OC2COC3OCCC23)C(O)CN(CC(C)C)S(=O)(=O)c2ccc(OC)cc2)cc1 (centres unmarked) |  |  | < 50 |  | I84V/L90M fold change [5, 7]: ++ (>10 to ≦30)
10 | CC(C)CN(CC(O)C(Cc1ccccc1)NC(=O)OC1COC2OCCC12)S(=O)(=O)c1ccc(OCP(=O)(OCc2ccccc2)OCc2ccccc2)cc1 (centres unmarked) |  |  | 50 to 500 | +++ (>30) | 
11 | CCCCOC(=O)C(C)NP(=O)(COc1cccc(CN2C(=O)N(Cc3ccc4[nH]nc(N)c4c3)C(Cc3ccccc3)C(O)C(O)C2Cc2ccccc2)c1)NC(C)C(=O)OCCCC (centres unmarked) [m-bis-Ala-Bu] | > 6000 |  |  |  | 
12 | COc1ccc(S(=O)(=O)N(CCN(C)C)CC(O)C(Cc2ccc(O)cc2)NC(=O)OC2COC3OCCC23)cc1 (centres unmarked) |  |  | 50 to 500 | − (≦3) | 
13 | Nc1n[nH]c2ccc(CN3C(=O)N(CCCCOCP(=O)(O)O)C(Cc4ccccc4)C(O)C(O)C3Cc3ccccc3)cc12 (centres unmarked) [CH2OCH2PO3H2] | > 4240 | 205 |  |  | 
14 | COc1ccc(S(=O)(=O)N(CC(O)C(Cc2ccccc2)NC(=O)OC2COC3OCCC23)CC(C)(C)COCP(=O)(O)O)cc1 (centres unmarked) |  |  |  |  | EC50 (HIV): 500 to 5000 nM; I84V/L90M fold change (I84V/L90M): +++
15 | CCOP(=O)(COCCCCN1C(=O)N(Cc2ccc3[nH]nc(N)c3c2)C(Cc2ccccc2)C(O)C(O)C1Cc1ccccc1)OCC (centres unmarked) [CH2OCH2PO3Et2] | 3300 | 123 |  |  | 
16 | COc1ccc(S(=O)(=O)N(CC(C)C)CC(O)C(Cc2ccc(OCP(=O)(NC(C)C(=O)OC(C)C)Oc3ccccc3)cc2)NC(=O)OC2COC3OCCC23)cc1 (centres unmarked) [drawing 1774 R1=OPh R2=Ala-iPr] |  |  |  |  | I84V/L90M fold change [5, 7]: − (≦3)
17 | CCOP(=O)(COc1ccc(CC2C(O)C(O)C(Cc3ccccc3)N(Cc3ccccc3)C(=O)N2Cc2ccccc2)cc1)OCC (centres unmarked) | 2460 | 48 |  |  | 
18 | Nc1n[nH]c2ccc(CN3C(=O)N(CCCOCP(=O)(O)O)C(Cc4ccccc4)C(O)C(O)C3Cc3ccccc3)cc12 (centres unmarked) [OCH2PO3H2] | > 6000 | 137 |  |  | 
19 | COc1cccc(S(=O)(=O)N(CC(C)C)CC(O)C(Cc2ccccc2)NC(=O)OC2COC3OCCC23)c1 (centres unmarked) |  |  | < 50 | ++ (>10 to ≦30) | 
20 | CCOP(=O)(OCC)c1ccc(CC(NC(=O)OC2COC3OCCC23)C(O)CN(CC(C)C)S(=O)(=O)c2ccc(OC)cc2)cc1 (centres unmarked) [drawing 1770 R1=OEt R2=OEt] |  |  | < 50 |  | I84V/L90M fold change [5, 7]: − (≦3)
21 | Cc1cccc(C)c1OCC(=O)NC(Cc1ccc(OCP(=O)(OCc2ccccc2)OCc2ccccc2)cc1)C(O)CN(CC(C)C)S(=O)(=O)c1ccc(N)cc1 (centres unmarked) |  |  | 50 to 500 | − (≦3) | 
22 | CCOP(=O)(COc1cccc(S(=O)(=O)N(CC(C)C)CC(O)C(Cc2ccccc2)NC(=O)OC2COC3OCCC23)c1)OCC (centres unmarked) |  |  | < 50 | ++ (>10 to ≦30) | 
